Where two headings read alike, the source gives them in different places.
Legend:
Format in all cases: biochemical
[1] = target: recombinant PI3K (p110δ/p85α) (Homo sapiens, UniProt O00329); experiment: PI3Kδ ADP-Glo kinase assay
Experimental: Compounds disclosed herein were tested for inhibition of PI3Kδ kinase activity using commercial ADP-Glo™ Kinase Assay (Promega Corporation) and following the manufacture's instruction. Briefly, recombinant PI3K (p110δ/p85α) enzyme, lipid kinase substrate and a serial dilution of compounds disclosed herein were incubated for 0.5 hr at room temperature. ATP was added to initiate the kinase reaction. After incubation for 1 hr at room temperature, ADP-Glo™ reagent was added to terminate the kinase reaction and deplete the remaining ATP. After incubation for 1 hr at room temperature, kinase detection reagent was added to simultaneously convert ADP to ATP and allow the newly synthesized ATP to be measured using a luciferase/luciferin reaction. After incubation for 0.5 hr at room temperature, the luminescence generated was measured on a PHERAstar FS plate reader (BMG LABTECH), The residual enzyme activity in presence of increasing concentrations of compounds was calculated based on the luminescence. The IC50 for each compound was derived from fitting the data to the four-parameter logistic equation by Graphpad Prism software.

PI3K (p110γ) = PI3K (p110γ) (Homo sapiens, UniProt P48736); experiment: PI3Kγ ADP-Glo kinase assay; details: for inhibition at 0.5 µM: read-out: PI3Kγ max inhibition (%) at 0.5 μM
PI3K (p110γ), sequence (P48736 whole entry): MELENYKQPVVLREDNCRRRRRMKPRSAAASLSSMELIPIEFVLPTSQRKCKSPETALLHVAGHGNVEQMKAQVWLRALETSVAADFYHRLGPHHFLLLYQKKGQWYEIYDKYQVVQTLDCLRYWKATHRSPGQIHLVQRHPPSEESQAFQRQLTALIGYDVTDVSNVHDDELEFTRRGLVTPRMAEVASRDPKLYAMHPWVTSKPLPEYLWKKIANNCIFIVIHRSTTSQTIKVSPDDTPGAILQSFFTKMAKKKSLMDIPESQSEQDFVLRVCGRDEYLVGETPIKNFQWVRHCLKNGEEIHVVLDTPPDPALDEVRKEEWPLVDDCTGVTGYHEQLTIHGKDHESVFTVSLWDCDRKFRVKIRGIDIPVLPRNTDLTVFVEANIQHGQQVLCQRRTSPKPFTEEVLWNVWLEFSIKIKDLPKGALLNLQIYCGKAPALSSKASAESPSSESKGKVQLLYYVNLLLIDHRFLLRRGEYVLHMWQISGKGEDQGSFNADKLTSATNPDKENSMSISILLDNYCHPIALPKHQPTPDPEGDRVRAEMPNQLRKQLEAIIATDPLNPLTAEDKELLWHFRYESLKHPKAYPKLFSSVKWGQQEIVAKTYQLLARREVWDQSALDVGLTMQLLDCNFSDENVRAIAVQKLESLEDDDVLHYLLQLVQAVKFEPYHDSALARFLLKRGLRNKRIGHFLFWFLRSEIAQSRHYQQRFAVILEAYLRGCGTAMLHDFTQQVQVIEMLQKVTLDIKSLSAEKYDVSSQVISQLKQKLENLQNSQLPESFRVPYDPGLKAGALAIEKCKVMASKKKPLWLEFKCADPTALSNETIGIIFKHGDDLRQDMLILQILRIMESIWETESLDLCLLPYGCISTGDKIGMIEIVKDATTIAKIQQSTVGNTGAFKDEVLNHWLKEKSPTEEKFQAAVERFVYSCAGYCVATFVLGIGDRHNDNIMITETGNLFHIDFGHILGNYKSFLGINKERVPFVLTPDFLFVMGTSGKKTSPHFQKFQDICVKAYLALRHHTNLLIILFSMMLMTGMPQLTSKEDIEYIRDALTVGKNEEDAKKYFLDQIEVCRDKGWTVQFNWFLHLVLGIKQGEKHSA

PI3K (p110β/p85α) = PI3K (p110β/p85α) (Homo sapiens, UniProt P42338); experiment: PI3Kβ ADP-Glo kinase assay; details: for inhibition at 0.5 µM: read-out: PI3Kβ max inhibition (%) at 0.5 μM
PI3K (p110β/p85α), sequence (P42338 whole entry): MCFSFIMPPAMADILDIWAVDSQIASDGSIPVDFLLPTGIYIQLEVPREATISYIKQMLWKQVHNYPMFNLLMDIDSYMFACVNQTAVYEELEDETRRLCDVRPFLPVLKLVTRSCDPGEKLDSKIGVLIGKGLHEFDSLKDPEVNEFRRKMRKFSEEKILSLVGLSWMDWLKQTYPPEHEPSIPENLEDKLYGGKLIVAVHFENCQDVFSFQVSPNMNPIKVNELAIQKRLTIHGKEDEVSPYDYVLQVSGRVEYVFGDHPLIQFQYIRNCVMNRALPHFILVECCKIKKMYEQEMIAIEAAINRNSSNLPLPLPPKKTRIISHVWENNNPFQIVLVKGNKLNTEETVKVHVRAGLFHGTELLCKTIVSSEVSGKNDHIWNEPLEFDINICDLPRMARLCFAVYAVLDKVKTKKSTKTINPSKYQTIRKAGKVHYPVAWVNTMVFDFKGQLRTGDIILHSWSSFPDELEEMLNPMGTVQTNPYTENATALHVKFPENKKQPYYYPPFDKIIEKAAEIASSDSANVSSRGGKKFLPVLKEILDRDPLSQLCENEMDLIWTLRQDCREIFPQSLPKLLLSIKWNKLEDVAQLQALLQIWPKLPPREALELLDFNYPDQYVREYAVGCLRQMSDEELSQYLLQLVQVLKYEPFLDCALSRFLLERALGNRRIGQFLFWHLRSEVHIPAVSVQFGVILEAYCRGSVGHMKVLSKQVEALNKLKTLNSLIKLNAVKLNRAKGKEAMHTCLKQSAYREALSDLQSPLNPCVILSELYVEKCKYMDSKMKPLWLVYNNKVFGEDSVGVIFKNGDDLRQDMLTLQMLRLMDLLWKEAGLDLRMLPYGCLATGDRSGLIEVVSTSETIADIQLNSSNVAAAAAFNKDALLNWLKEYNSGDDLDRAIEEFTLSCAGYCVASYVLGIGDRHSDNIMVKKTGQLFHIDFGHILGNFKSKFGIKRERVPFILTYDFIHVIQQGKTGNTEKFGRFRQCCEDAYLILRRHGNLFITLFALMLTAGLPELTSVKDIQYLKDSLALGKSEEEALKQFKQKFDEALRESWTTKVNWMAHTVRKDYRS
PI3K (p110β/p85α), sequence (P27986 whole entry partner): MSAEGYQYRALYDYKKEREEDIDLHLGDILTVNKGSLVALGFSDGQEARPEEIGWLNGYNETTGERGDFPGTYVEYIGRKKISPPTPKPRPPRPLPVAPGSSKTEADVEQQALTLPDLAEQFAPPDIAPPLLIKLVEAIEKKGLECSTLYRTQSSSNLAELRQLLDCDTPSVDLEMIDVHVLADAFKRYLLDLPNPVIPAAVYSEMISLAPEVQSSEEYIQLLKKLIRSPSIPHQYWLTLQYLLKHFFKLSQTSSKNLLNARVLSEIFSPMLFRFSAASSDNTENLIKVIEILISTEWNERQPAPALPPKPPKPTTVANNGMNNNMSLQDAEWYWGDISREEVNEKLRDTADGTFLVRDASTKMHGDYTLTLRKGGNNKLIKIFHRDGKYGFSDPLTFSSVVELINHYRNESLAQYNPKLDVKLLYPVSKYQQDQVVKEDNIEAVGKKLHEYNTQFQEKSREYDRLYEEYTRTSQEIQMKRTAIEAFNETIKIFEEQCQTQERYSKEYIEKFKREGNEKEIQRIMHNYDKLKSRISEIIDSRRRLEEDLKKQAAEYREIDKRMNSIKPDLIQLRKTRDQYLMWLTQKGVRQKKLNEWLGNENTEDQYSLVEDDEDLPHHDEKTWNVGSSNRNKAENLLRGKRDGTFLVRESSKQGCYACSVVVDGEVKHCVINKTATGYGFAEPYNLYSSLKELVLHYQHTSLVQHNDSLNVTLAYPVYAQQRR

[2] = target: recombinant PI3K (p110α/p85α) (Homo sapiens, UniProt P42336); experiment: PI3Kα ADP-Glo kinase assay; details: for inhibition at 0.5 µM: read-out: PI3Kα max inhibition (%) at 0.5 μM
recombinant PI3K (p110α/p85α), sequence (P42336 whole entry): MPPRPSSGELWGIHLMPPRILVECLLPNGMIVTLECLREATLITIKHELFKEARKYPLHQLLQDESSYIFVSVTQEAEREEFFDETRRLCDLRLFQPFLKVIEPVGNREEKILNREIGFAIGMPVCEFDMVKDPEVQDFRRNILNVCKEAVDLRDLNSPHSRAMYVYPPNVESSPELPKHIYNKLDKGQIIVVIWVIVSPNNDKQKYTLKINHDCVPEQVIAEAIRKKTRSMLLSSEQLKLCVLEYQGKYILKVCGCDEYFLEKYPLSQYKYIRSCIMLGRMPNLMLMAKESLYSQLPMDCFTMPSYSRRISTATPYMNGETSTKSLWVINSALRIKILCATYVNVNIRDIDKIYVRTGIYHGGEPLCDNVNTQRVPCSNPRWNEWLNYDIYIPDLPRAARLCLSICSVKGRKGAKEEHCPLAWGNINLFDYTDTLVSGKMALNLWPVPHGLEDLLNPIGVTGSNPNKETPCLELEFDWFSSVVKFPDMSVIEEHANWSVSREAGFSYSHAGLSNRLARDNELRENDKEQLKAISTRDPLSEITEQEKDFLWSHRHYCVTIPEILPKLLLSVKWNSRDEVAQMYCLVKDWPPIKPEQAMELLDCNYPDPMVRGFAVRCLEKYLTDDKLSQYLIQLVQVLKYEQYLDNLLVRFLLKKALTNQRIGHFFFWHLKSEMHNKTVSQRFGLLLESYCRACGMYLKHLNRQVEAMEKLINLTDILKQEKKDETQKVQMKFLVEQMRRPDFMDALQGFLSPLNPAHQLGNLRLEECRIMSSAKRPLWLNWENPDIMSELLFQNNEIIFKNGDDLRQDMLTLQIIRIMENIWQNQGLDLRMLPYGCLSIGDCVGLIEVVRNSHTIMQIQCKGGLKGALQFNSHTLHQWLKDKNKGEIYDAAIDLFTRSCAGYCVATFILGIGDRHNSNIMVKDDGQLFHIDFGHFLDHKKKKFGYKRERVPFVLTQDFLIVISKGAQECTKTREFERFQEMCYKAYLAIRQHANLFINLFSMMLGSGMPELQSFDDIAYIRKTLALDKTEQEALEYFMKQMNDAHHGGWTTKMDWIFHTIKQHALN
recombinant PI3K (p110α/p85α), sequence (P27986 whole entry partner): as the sequence (P27986 whole entry partner) above

[3] = read-out: PI3Kδ Enzyme activity IC50
[4] = read-out: PI3Kγ Enzyme activity IC50
[5] = read-out: PI3Kβ Enzyme activity IC50
[6] = read-out: PI3Kα Enzyme activity IC50

recombinant PI3K (p110δ/p85α), sequence (O00329 whole entry): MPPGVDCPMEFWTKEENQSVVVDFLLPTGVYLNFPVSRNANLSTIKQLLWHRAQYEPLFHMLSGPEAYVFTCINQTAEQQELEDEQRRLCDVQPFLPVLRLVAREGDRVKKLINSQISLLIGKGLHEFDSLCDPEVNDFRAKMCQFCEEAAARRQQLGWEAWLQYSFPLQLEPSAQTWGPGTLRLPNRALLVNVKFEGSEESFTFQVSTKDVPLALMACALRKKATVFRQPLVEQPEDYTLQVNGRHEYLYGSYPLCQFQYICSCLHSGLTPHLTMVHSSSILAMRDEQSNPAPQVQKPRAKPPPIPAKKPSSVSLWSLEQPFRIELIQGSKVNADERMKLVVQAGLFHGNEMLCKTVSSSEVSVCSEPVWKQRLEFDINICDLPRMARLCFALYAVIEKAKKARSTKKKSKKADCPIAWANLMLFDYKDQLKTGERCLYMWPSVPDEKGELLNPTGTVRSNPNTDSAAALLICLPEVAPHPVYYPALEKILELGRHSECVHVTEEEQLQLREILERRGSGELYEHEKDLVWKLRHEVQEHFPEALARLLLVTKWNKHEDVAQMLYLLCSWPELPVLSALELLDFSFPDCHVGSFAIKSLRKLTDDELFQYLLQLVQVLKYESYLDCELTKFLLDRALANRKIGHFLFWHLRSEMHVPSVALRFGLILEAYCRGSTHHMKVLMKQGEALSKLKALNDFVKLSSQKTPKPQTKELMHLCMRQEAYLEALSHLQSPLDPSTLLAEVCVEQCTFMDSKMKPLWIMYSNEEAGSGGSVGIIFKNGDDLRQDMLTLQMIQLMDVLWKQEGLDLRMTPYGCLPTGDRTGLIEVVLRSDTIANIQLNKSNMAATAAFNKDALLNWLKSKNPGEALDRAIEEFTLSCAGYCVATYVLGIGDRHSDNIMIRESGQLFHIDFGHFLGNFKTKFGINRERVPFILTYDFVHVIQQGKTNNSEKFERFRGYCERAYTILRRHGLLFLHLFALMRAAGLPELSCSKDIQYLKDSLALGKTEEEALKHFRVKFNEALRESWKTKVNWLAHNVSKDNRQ
recombinant PI3K (p110δ/p85α), sequence (P27986 whole entry partner): as the sequence (P27986 whole entry partner) above

CC(C)Oc1c(C(C)c2nc(Cl)c3c(N)nccn23)cc(Cl)c(F)c1C1CNC(=O)C1 (single isomer, unassigned) [Compound 48A, 4-(3-(1-(8-amino-1-chloroimidazo[1,5-a]pyrazin-3-yl)ethyl)-5-chloro-6-fluoro-2-isopropoxyphenyl)pyrrolidin-2-one]
IC50 [1, 3]: 0.4 nM
IC50 (PI3K (p110γ); [4]): 800 nM
IC50 (PI3K (p110β/p85α); [5]): 440 nM
IC50 [2, 6]: 4800 nM

CCOc1c(C(C)c2nc(Cl)c3c(N)nccn23)cc(Cl)c(F)c1C1CCOCC1 (single isomer, unassigned) [Compound 49A, 1-chloro-3-(1-(5-chloro-2-ethoxy-4-fluoro-3-(tetrahydro-2H-pyran-4-yl)phenyl)ethyl)imidazo[1,5-a]pyrazin-8-amine]
IC50 [1, 3]: 0.49 nM
IC50 (PI3K (p110γ); [4]): 440 nM
IC50 (PI3K (p110β/p85α); [5]): 260 nM
IC50 [2, 6]: 2100 nM

CCOc1c(C(C)c2nc(Cl)c3c(N)nccn23)cc(Cl)c(C)c1N1CCOCC1 (single isomer, unassigned) [Compound 51A, 1-chloro-3-(1-(5-chloro-2-ethoxy-4-methyl-3-morpholinophenyl)ethyl)imidazo[1,5-a]pyrazin-8-amine]
IC50 [1, 3]: 0.79 nM
IC50 (PI3K (p110γ); [4]): 1200 nM
IC50 (PI3K (p110β/p85α); [5]): 480 nM
IC50 [2, 6]: 2100 nM

Cc1nc(C(C)c2cc(Cl)c(F)c(-c3ccc(C#N)nc3)c2OC(C)C)n2ccnc(N)c12 (single isomer, unassigned) [Compound 59A, 5-(3-(1-(8-amino-1-methylimidazo[1,5-a]pyrazin-3-yl)ethyl)-5-chloro-6-fluoro-2-isopropoxyphenyl)picolinonitrile]
IC50 [1, 3]: 1.2 nM
IC50 (PI3K (p110γ); [4]): 2700 nM
IC50 (PI3K (p110β/p85α); [5]): 1400 nM
IC50 [2, 6]: 6300 nM

COc1c(C(C)c2ncc3c(N)nccn23)cc(Cl)c(C)c1-c1cccnc1 (stereo not shown) [Compound 1, 3-(1-(5-chloro-2-methoxy-4-methyl-3-(pyridin-3-yl)phenyl)ethyl)imidazo[1,5-a]pyrazine-8-amine]
IC50 [1, 3]: 150 nM
inhibition at 0.5 µM (PI3K (p110γ)): -27%
inhibition at 0.5 µM (PI3K (p110β/p85α)): 6%

CCOc1c(C(C)c2nc(Cl)c3c(N)nccn23)cc(Cl)c(C)c1-c1ccc(C)nc1 (stereo not shown) [Compound 8, 1-chloro-3-(1-(5-chloro-2-ethoxy-4-methyl-3-(6-methylpyridin-3-yl)phenyl)ethyl) imidazo[1,5-a]pyrazin-8-amine]
IC50 [1, 3]: 1.1 nM
IC50 (PI3K (p110γ); [4]): 260 nM
IC50 (PI3K (p110β/p85α); [5]): 350 nM
IC50 [2, 6]: 1400 nM

CCOc1c([C@H](C)c2nc(Cl)c3c(N)nccn23)cc(Cl)c(C)c1-c1ccc(C)nc1 [Compound 8A]
IC50 [1, 3]: 0.51 nM
IC50 (PI3K (p110γ); [4]): 300 nM
IC50 (PI3K (p110β/p85α); [5]): 580 nM
IC50 [2, 6]: 1300 nM

CCOc1c(C(C)c2nc(-c3cccc(O)c3)c3c(N)nccn23)cc(Cl)c(C)c1-c1ccc(C(F)(F)F)nc1 (stereo not shown) [Compound 10, 3-(8-amino-3-(1-(5-chloro-2-ethoxy-4-methyl-3-(6-(trifluoromethyl)pyridin-3-yl)phenyl)ethyl)imidazo[1,5-a]pyrazin-1-yl)phenol]
IC50 [1, 3]: 9.1 nM
IC50 (PI3K (p110γ); [4]): 1500 nM
IC50 (PI3K (p110β/p85α); [5]): 2700 nM
IC50 [2, 6]: 3200 nM

CCOc1c([C@H](C)c2nc(Cl)c3c(N)nccn23)cc(Cl)c(C)c1-c1ccc(C(=O)N(C)C)nc1 [Compound 11, (S)-5-(3-(1-(8-amino-1-chloroimidazo[1,5-a]pyrazin-3-yl)ethyl)-5-chloro-2-ethoxy-6-methylphenyl)-N,N-dimethylpicolinamide]
IC50 [1, 3]: 0.54 nM
IC50 (PI3K (p110γ); [4]): 190 nM
IC50 (PI3K (p110β/p85α); [5]): 360 nM
IC50 [2, 6]: 540 nM

CCOc1c([C@H](C)c2nc(Cl)c3c(N)nccn23)cc(Cl)c(C)c1-c1ccc(C(=O)O)nc1 [Compound 12]
IC50 [1, 3]: 1.7 nM
IC50 (PI3K (p110γ); [4]): 67 nM
IC50 (PI3K (p110β/p85α); [5]): 870 nM
IC50 [2, 6]: 1300 nM

CCOc1c(C(C)c2nc(Cl)c3c(N)nccn23)cc(Cl)c(F)c1-c1ccc(C(=O)N(C)C)nc1 (stereo not shown) [Compound 13, 5-(3-(1-(8-amino-1-chloroimidazo[1,5-a]pyrazin-3-yl)ethyl)-5-chloro-2-ethoxy-6-fluorophenyl)-N,N-dimethylpicolinamide]
IC50 [1, 3]: 1.2 nM
IC50 (PI3K (p110γ); [4]): 480 nM
IC50 (PI3K (p110β/p85α); [5]): 400 nM
IC50 [2, 6]: 1200 nM

CCOc1c(C(C)c2nc(Cl)c3c(N)nccn23)cc(Cl)c(C)c1-c1ccc(=O)[nH]c1 (stereo not shown) [Compound 15, 5-(3-(1-(8-amino-1-chloroimidazo[1,5-a]pyrazin-3-yl)ethyl)-5-chloro-2-ethoxy-6-methylphenyl)pyridin-2(1H)-one]
IC50 [1, 3]: 1.2 nM
IC50 (PI3K (p110γ); [4]): 320 nM
IC50 (PI3K (p110β/p85α); [5]): 320 nM
IC50 [2, 6]: 830 nM

CC(C)Oc1c(C(C)c2nc(Cl)c3c(N)nccn23)cc(Cl)c(F)c1-c1ccc(C(N)=O)nc1 (stereo not shown) [Compound 17, 5-(3-(1-(8-amino-1-chloroimidazo[1,5-a]pyrazin-3-yl)ethyl)-5-chloro-6-fluoro-2-isopropoxyphenyl)picolinamide]
IC50 [1, 3]: 1.5 nM
IC50 (PI3K (p110γ); [4]): 1900 nM
IC50 (PI3K (p110β/p85α); [5]): 1600 nM
IC50 [2, 6]: 3100 nM

CC(C)Oc1c([C@H](C)c2nc(Cl)c3c(N)nccn23)cc(Cl)c(F)c1-c1ccc(C(N)=O)nc1 [Compound 17B]
IC50 [1, 3]: 0.28 nM
IC50 (PI3K (p110γ); [4]): 520 nM
IC50 (PI3K (p110β/p85α); [5]): 670 nM
IC50 [2, 6]: 970 nM

CC(C)Oc1c(C(C)c2nc(Cl)c3c(N)nccn23)cc(Cl)c(F)c1-c1ccc(C(=O)O)nc1 (stereo not shown) [Compound 18, 5-(3-(1-(8-amino-1-chloroimidazo[1,5-a]pyrazin-3-yl)ethyl)-5-chloro-6-fluoro-2-isopropoxyphenyl)picolinic Acid]
IC50 [1, 3]: 1.3 nM
IC50 (PI3K (p110γ); [4]): 340 nM
IC50 (PI3K (p110β/p85α); [5]): 1100 nM
IC50 [2, 6]: 7100 nM

CC(C)Oc1c([C@H](C)c2nc(Cl)c3c(N)nccn23)cc(Cl)c(F)c1-c1ccc(C(=O)O)nc1 [Compound 18A]
IC50 [1, 3]: 0.56 nM
IC50 (PI3K (p110γ); [4]): 160 nM
IC50 (PI3K (p110β/p85α); [5]): 190 nM
IC50 [2, 6]: 4600 nM

COc1c(C(C)c2nc(Br)c3c(N)nccn23)cc(Cl)c(C)c1-c1ccc(C)nc1 (stereo not shown) [Compound 19, 1-bromo-3-(1-(5-chloro-2-methoxy-4-methyl-3-(6-methylpyridin-3-yl)phenyl)ethyl) imidazo[1,5-a]pyrazin-8-amine]
IC50 ([1]; PI3Kδ Enzyme activity IC50): 1.3 nM
IC50 (PI3K (p110γ); PI3Kγ Enzyme activity IC50): 210 nM
IC50 (PI3K (p110β/p85α); PI3Kβ Enzyme activity IC50): 180 nM
IC50 ([2]; PI3Kα Enzyme activity IC50): 580 nM

COc1ccc(-c2c(C)c(Cl)cc(C(C)c3nc(Br)c4c(N)nccn34)c2OC)cn1 (stereo not shown) [Compound 20, 1-bromo-3-(1-(5-chloro-2-methoxy-3-(6-methoxypyridin-3-yl)-4-methylphenyl)ethyl)imidazo[1,5-a]pyrazin-8-amine]
IC50 [1, 3]: 3.2 nM
IC50 (PI3K (p110γ); [4]): 740 nM
IC50 (PI3K (p110β/p85α); [5]): 930 nM
IC50 [2, 6]: 2300 nM

COc1c(C(C)c2nc(Br)c3c(N)nccn23)cc(Cl)c(C)c1-c1c(C)noc1C (stereo not shown) [Compound 21, 1-bromo-3-(1-(5-chloro-3-(3,5-dimethylisoxazol-4-yl)-2-methoxy-4-methylphenyl)ethyl)imidazo[1,5-a]pyrazin-8-amine]
IC50 [1, 3]: 3.3 nM
IC50 (PI3K (p110γ); [4]): 1500 nM
IC50 [2, 6]: 2000 nM

COc1c(C(C)c2nc(Br)c3c(N)nccn23)cc(Cl)c(C)c1-c1ccc(Cl)nc1 (stereo not shown) [Compound 22, 1-bromo-3-(1-(5-chloro-3-(6-chloropyridin-3-yl)-2-methoxy-4-methylphenyl)ethyl) imidazo[1,5-a]pyrazin-8-amine]
IC50 [1, 3]: 1.5 nM
IC50 (PI3K (p110γ); [4]): 760 nM
IC50 (PI3K (p110β/p85α); [5]): 390 nM
IC50 [2, 6]: 1400 nM

COc1c(C(C)c2nc(Br)c3c(N)nccn23)cc(Cl)c(C)c1-c1ccc(N2CCOCC2)nc1 (stereo not shown) [Compound 23, 1-bromo-3-(1-(5-chloro-2-methoxy-4-methyl-3-(6-morpholinopyridin-3-yl)phenyl)ethyl)imidazo[1,5-a]pyrazin-8-amine]
IC50 [1, 3]: 15 nM
inhibition at 0.5 µM (PI3K (p110γ)): -19%
inhibition at 0.5 µM (PI3K (p110β/p85α)): 12%
inhibition at 0.5 µM [2]: 16%

CCOc1c(C(C)c2nc(Br)c3c(N)nccn23)cc(Cl)c(C)c1-c1ccc(C(F)(F)F)nc1 (stereo not shown) [Compound 24, 1-bromo-3-(1-(5-chloro-2-ethoxy-4-methyl-3-(6-(trifluoromethyl)pyridin-3-yl)phenyl)ethyl)imidazo[1,5-a]pyrazin-8-amine]
IC50 [1, 3]: 2.9 nM
IC50 (PI3K (p110γ); [4]): 2100 nM
IC50 (PI3K (p110β/p85α); [5]): 1600 nM
IC50 [2, 6]: 4000 nM

CCOc1c(C(C)c2nc(Cl)c3c(N)nccn23)cc(Cl)c(C)c1-c1ccc(C(F)(F)F)nc1 (stereo not shown) [Compound 25, 1-chloro-3-(1-(5-chloro-2-ethoxy-4-methyl-3-(6-(trifluoromethyl)pyridin-3-yl)phenyl)ethyl)imidazo[1,5-a]pyrazin-8-amine]
IC50 [1, 3]: 2.6 nM
IC50 (PI3K (p110γ); [4]): 1400 nM
IC50 (PI3K (p110β/p85α); [5]): 2600 nM
IC50 [2, 6]: 3000 nM

CCOc1c(C(C)c2nc(Br)c3c(N)nccn23)cc(Cl)c(C)c1-c1ccc(Cl)nc1 (stereo not shown) [Compound 26, 1-bromo-3-(1-(5-chloro-3-(6-chloropyridin-3-yl)-2-ethoxy-4-methylphenyl)ethyl) imidazo[1,5-a]pyrazin-8-amine]
IC50 [1, 3]: 1.4 nM
IC50 (PI3K (p110γ); [4]): 500 nM
IC50 (PI3K (p110β/p85α); [5]): 330 nM
IC50 [2, 6]: 1500 nM

COc1c(C(C)c2nc(C)c3c(N)nccn23)cc(Cl)c(C)c1-c1cccnc1 (stereo not shown) [Compound 52, 3-(1-(5-chloro-2-methoxy-4-methyl-3-(pyridin-3-yl)phenyl)ethyl)-1-methyl imidazo[1,5-a]pyrazin-8-amine]
IC50 [1, 3]: 7.7 nM
inhibition at 0.5 µM (PI3K (p110γ)): -11%
inhibition at 0.5 µM [2]: 6%
